Measured values taken from US20240319202A1, “METHOD FOR EVALUATING AGGREGATION STATE OF AGGREGATIVE PROTEIN” (HAMAMATSU PHOTONICS K.K., priority 2023, published 2024).

Tests used:
[1] = target: T1, lysozyme (Gallus gallus, UniProt P00698); assay: Evaluation of aggregation state of heat-denatured lysozyme using light-absorption/fluorescence characteristics of a xanthene dye as index; conditions: lysozyme 7 μM, dye 1 μM, heat-stirred at 60° C.
T1 construct: purchased FUJIFILM Wako Pure Chemical Corporation
T1 sequence (P00698 19-147): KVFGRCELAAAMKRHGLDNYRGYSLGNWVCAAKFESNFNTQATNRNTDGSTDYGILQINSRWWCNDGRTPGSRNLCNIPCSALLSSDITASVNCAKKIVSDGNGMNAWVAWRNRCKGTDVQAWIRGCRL
Experimental: 40 mg of lysozyme (manufactured by FUJIFILM Wako Pure Chemical Corporation) was added to 2 mL of an aqueous solution of 25 mM of hydrochloric acid and 100 mM of sodium chloride, and dissolved by being left to stand. The obtained lysozyme solution was heat-stirred at 200 rpm at 60° C. to cause heat denaturation of the lysozyme, thereby starting the aggregation reaction of the lysozyme. At 0, 10, 20, 25, 30, 35, 40, 45, 50, 60, 70, 80, and 90 minutes after starting heat-stirring, each of 100 μL of the lysozyme solution was extracted and ice-cooled. The ice-cooled lysozyme solution, and rose bengal (manufactured by FUJIFILM Wako Pure Chemical Corporation) were added to distilled water such that final concentrations were each 7 μM and 1 μM. The obtained solution was put in a spectroscopic measurement cell to measure the light-absorption/fluorescence characteristics. The excitation wavelength in fluorescence measurement was 530 nm.
Sample preparation and light absorption and fluorescence measurement were performed in the same manner as in Example 1 except that eosin Y (manufactured by FUJIFILM Wako Pure Chemical Corporation) was used instead of rose bengal as the xanthene dye, and that the excitation wavelength in fluorescence measurement was set to 500 nm. […]

[2] = target: T2, horseradish peroxidase (HRP) (Armoracia rusticana, UniProt P00433); assay: Evaluation of aggregation state of heat-denatured horseradish peroxidase using light-absorption/fluorescence characteristics of rose bengal as index; conditions: HRP 5 μM, dye 1 μM, heat-stirred at 70° C., PBS pH 7.4
T2 construct: purchased FUJIFILM Wako Pure Chemical Corporation
T2 sequence (P00433 31-338): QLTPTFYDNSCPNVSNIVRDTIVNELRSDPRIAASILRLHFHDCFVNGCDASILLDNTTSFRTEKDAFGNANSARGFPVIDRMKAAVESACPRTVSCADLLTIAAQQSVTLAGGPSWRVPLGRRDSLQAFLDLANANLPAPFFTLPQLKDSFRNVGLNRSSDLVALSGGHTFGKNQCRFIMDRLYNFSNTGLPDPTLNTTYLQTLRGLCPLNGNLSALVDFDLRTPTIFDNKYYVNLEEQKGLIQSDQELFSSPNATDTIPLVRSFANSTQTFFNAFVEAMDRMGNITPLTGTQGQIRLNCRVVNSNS
Experimental: 40 mg of horseradish peroxidase (HRP, manufactured by FUJIFILM Wako Pure Chemical Corporation) was added to 2 mL of phosphate buffered saline at pH 7.4, and dissolved by being left to stand. The obtained HRP solution was heat-stirred at 200 rpm at 70° C. to cause heat denaturation of the HRP, thereby starting the aggregation reaction of the HRP. At 0, 5, 10, 15, 20, 25, 30, 35, 40, 50, 60, 70, 80, and 90 minutes after starting heat-stirring, each of 100 μL of the HRP solution was extracted and ice-cooled. The ice-cooled HRP solution, and rose bengal (manufactured by FUJIFILM Wako Pure Chemical Corporation) were added to distilled water such that final concentrations were each 5 μM and 1 μM. The obtained solution was put in a spectroscopic measurement cell to measure the light-absorption/fluorescence characteristics. The excitation wavelength in fluorescence measurement was 530 nm.

heat denaturation time at the minimum point of maximum absorbance (decreasing, thereafter increasing) ([2]; HRP absorption subtracted)	heat denaturation time at the minimum point of fluorescence intensity at around 570 nm and maximum fluorescence intensity (decreasing, thereafter increasing) ([2]; excitation 530 nm)	SMILES	shape of the absorption spectra, maximum absorption wavelength and maximum absorbance versus heat denaturation time [1]
–	–	O.O=C([O-])c1ccccc1-c1c2cc(I)c(=O)c(I)c-2oc2c(I)c([O-])c(I)cc12.[Na+].[Na+] [erythrosin B]	changed depending on a heat denaturation time
around 20 minutes	around 20 minutes	O=C(O)c1c(Cl)c(Cl)c(Cl)c(Cl)c1-c1c2cc(I)c(=O)c(I)c-2oc2c(I)c(O)c(I)cc12 [rose bengal]	–
